Assay [1] concerns Escherichia coli. Nature of the assay: Compound was evaluated for its ability to inhibit the formation of peptidoglycan by incorporation of [14C]GlcNAc into TCA insoluble, filter-capturable material; NI is No Inhibition at 200 ug/mL. The class given is functional, organism-based.
Assay [2] deals with Escherichia coli. The experiment in a line: Compound was evaluated for its ability to inhibit MraY enzyme for the conversion of Lipid I to lipid II in the coupled MraY/MurG assay; Ni is No Inhibition at 234 ug/mL.
Assay [3] relates to Escherichia coli. Nature of the assay: Compound was evaluated for its ability to inhibit MurG enzyme for the conversion of Lipid I to lipid II in MurG enzyme assay; NI is No Inhibition at 234 ug/mL.
Assay [4] deals with Escherichia coli. Nature of the assay: (§1) Compound was evaluated for its ability to inhibit MurG enzyme for the conversion of Lipid I to lipid II in coupled MraY/MurG assay; NI is No Inhibition at 234 ug/mL.
The test system of assay [5] is Escherichia coli. The experiment in a line: Compound was evaluated for its ability to inhibit MraY enzyme for the conversion of Lipid I to lipid II in the coupled MraY/MurG assay; Ni is No Inhibition at 256 ug/mL.
Assay [6] has as its system Escherichia coli. The experiment in a line: Compound was evaluated for its ability to inhibit MurG enzyme for the conversion of Lipid I to lipid II in MurG enzyme assay; NI is No Inhibition at 256 ug/mL.
Assay [7] relates to Escherichia coli. The experiment in a line: Compound was evaluated for its ability to inhibit MurG enzyme for the conversion of Lipid I to lipid II in coupled MraY/MurG assay; NI is No Inhibition at 256 ug/mL.
Assay [8] relates to Escherichia coli. Nature of the assay: Compound was evaluated for its ability to inhibit MraY enzyme for the conversion of Lipid I to lipid II in the coupled MraY/MurG assay; Ni is No Inhibition at 238 ug/mL.
Assay [9] has as its system Escherichia coli. The experiment in a line: Compound was evaluated for its ability to inhibit MurG enzyme for the conversion of Lipid I to lipid II in the coupled MraY/MurG assay; NI is No inhibition at 238 ug/mL.
Assay [10] can be described thus: Compound was evaluated for its ability to inhibit MurG enzyme for the conversion of Lipid I to lipid II in MurG enzyme assay. Also on record: species or system Escherichia coli.
Assay [11] is described as follows: Compound was evaluated for its ability to inhibit MraY enzyme for the conversion of Lipid I to lipid II in coupled MraY/MurG assay; NI is No Inhibition at 234 ug/mL. The arrangement: species or system Escherichia coli.
A short description of assay [12]: as §1. The arrangement: species or system Escherichia coli.

From ChEMBL document CHEMBL1133149, “Synthesis and biological evaluation of analogues of bacterial lipid I” (Bioorg Med Chem Lett, 2000) come the findings set out here.

In brackets after ≈: the same amount, converted by molar mass. Bounds are passed on as bounds.

Regarding `CC(=O)NC1C(Sc2ccccc2)OC(CO)C(O)C1O[C@@H](C)C(=O)N[C@@H](C)C(=O)N[C@H](CCC(=O)N[C@@H](CCCCN)C(=O)N[C@H](C)C(=O)N[C@H](C)C(=O)O)C(=O)O` (some centres undefined), the Activity result in assay [1], in [2], in assay [3] and in assay [4] was “No inhibition” each time.
`COC1OC(CO)C(O)C(O[C@@H](C)C(=O)N[C@@H](C)C(=O)N[C@H](CCC(=O)N[C@@H](CCCCN)C(=O)N[C@H](C)C(=O)N[C@H](C)C(=O)O)C(=O)O)C1NC(C)=O` (some centres undefined): the Activity entry in [1], in assay [5], in assay [6] and in assay [7] was “No inhibition” in each case.
Consider `CC(=O)NC1C(OP(=O)(O)O)OC(CO)C(O)C1O[C@@H](C)C(=O)N[C@@H](C)C(=O)N[C@H](CCC(=O)N[C@@H](CCCCN)C(=O)N[C@H](C)C(=O)N[C@H](C)C(=O)O)C(=O)O` (some centres undefined), for which the Activity entry in assay [1], in assay [8] and in [9] was “No inhibition” each time. Besides, the IC50 (as a rule, the concentration needed to halve the response being measured) in assay [10] amounted to 50 µg/mL (≈ 59.3 µM).
The molecule `CC(=O)N[C@H]1[C@@H](O[C@@H]2O[C@H](CC(O)[C@H]3O[C@@H](n4ccc(=O)[nH]c4=O)[C@H](O)[C@@H]3O)[C@H](O)[C@H](O)[C@H]2NC(=O)/C=C/CC(C)C)O[C@H](CO)[C@@H](N)[C@@H]1O` (some centres undefined) [TUNICAMYCIN] returned a half-inhibitory concentration (IC50) in assay [11] of under 1 µg/mL.
With RAMOPLANIN, the IC50 in assay [12] was under 1 µg/mL.
